Test results as given in patent publication EP3352763B1 (priority 2015, dated 2017).

Tested on: A/Mississippi/3/2001/Variante, H1N1
Type: cell-based, Influenzaviren

SMILES: O=C(/C=C/c1ccc(O)cc1)OC[C@H]1O[C@@H](Oc2c(-c3ccc(O)cc3)oc3cc(O)cc(O)c3c2=O)[C@H](O)[C@@H](O)[C@@H]1O [Tilirosid, Kaempferol-3-(6"-trans-p-coumaroyl)glucosid]
- Selektivitätsindex (S.I.): 1.047
- antivirale Wirkung: antiviral wirkt
